For 26 molecules, IC50 results are on record in US7151105B2, “Inhibitors of Hepatitis C virus RNA-dependent RNA polymerase, and compositions and treatments using the same” (Agouron Pharmaceuticals, Inc., priority 2004, dated 2006).

Structures can show the parent of a compound that is named as a salt.

T1 sequence (P26663 2420-3010): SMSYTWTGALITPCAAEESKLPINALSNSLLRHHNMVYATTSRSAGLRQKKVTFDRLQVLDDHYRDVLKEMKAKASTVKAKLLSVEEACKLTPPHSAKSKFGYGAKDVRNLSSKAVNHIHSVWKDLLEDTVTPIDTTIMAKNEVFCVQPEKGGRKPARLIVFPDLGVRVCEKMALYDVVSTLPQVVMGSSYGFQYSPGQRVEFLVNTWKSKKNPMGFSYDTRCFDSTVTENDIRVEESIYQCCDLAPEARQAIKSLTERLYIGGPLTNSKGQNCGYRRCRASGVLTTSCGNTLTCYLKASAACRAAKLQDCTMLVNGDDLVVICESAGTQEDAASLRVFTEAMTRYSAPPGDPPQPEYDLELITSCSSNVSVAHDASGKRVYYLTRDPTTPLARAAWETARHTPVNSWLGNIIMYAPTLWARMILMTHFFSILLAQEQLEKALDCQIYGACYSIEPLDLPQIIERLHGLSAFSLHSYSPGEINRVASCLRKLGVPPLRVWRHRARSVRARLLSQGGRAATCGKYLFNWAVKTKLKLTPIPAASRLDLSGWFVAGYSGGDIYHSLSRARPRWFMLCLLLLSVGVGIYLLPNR

The assay has as its target T1, Recombinant HCV polymerase (Hepatitis C virus genotype 1b, UniProt P26663).
T1 construct: Recombinant HCV polymerase was tested for its ability to perform primer/template-directed transcription
Description: biochemical. As to conditions: inhibition of polymerase-directed transcription; 30 min at 30° C; 30 nM enzyme; cpm data in triplicate. Here is the method: The compounds described herein were tested for activity with HCV polymerase. Recombinant HCV polymerase was tested for its ability to perform primer/template-directed transcription in assays that contained 30 mM tris-HCl pH 7.2, 10 mM MgCl2, 20 mM NaCl, 1 mM Dithiothreitol (DTT), 0.05% Tween-20, 1% glycerol, 5 pmoles biotin-dG12 (primer), 0.5 pmoles poly(rC)300 (template), 1 μM GTP, 0.1–0.3 uCi α-^32P-GTP, and 2.5 pmoles (0.15 μg) HCV polymerase protein in a final volume of 75 μL. Reactions were initiated by addition of enzyme and incubated 30 minutes at 30° C. Reactions were stopped by addition of 33 mM EDTA, and polynucleotide products were collected by filtration through Diethylaminoethyl (DE) Filtermat papers (Wallac). Unincorporated triphosphate was removed by washing the filters with 5% dibasic sodium phosphate. The filters were counted in a Packard Tri-Lux Microbeta scintillation counter (Packard Bioscience, Meriden, Conn.). Compounds to be tested were added at various concentrations, e.g., 1 μm to 50 μm, from stocks in 10% DMSO-water (final DMSO is 1% in reaction).
IC50 values were estimated from the primary cpm data (collected in triplicate) using the formula: cpm (I)=cpm (no inhibitor)(1−([I]/([I]+IC50))). […] A percent inhibition value is expressed for a compound where it was impractical to calculate an IC50 value with available data.
For the molecule `CC(C)(O)c1ccc(CCC2(C3CCCC3)CC(O)=C(Cc3nc4ncc(Cl)cn4n3)C(=O)O2)cc1Cl` (centres unmarked) [B(38), 6-{2-[3-Chloro-4-(1-hydroxy-1-methylethyl)phenyl]ethyl}-3-[(6-chloro[1,2,4]triazolo[1,5-a]pyrimidin-2-yl)methyl]-6-cyclopentyl-4-hydroxy-5,6-dihydro-2H-pyran-2-one], the 50% inhibitory concentration (IC50) was 67 nM.
As for `CCc1ccc(OC)c(CCC2(C3CCCC3)CC(O)=C(Cc3nc4nc(C)cc(C)n4n3)C(=O)O2)n1` (centres unmarked) [A(6), 6-Cyclopentyl-3-[(5,7-dimethyl[1,2,4]triazolo[1,5-a]pyrimidin-2-yl)methyl]6-[2-(6-ethyl-3-methoxypyridin-2-yl)ethyl]4-hydroxy-5,6-dihydro-2H-pyran-2-one], the figure is 39 nM; as for `Cc1cc(C)n2nc(OC3C(=O)CC(CCc4ccc(C(C)(C)C#N)c(Cl)c4)(C4CCCC4)OC3=O)nc2n1` (centres unmarked) [B(27), 2-[2-Chloro-4-(2-{2-cyclopentyl-5-[(5,7-dimethyl[1,2,4]triazolo[1,5-a]pyrimidin-2-yl)oxy]-4,6-dioxotetrahydro-2H-pyran-2-yl}ethyl)phenyl]-2-methylpropanenitrile], 10000 nM; as for `CCOc1cnc(CC)cc1CCC1(C2CCCC2)CC(O)=C(Cc2nc3ncc(C)cn3n2)C(=O)O1` (centres unmarked) [A(43), 6-Cyclopentyl-6-[2-(5-ethoxy-2-ethylpyridin-4-yl)ethyl]-4-hydroxy-3-[(6-methyl[1,2,4]triazolo[1,5-a]pyrimidin-2-yl)methyl]-5,6-dihydro-2H-pyran-2-one], 8 nM.
With `Cc1cnc2nc(CC3=C(O)CC(CCc4cc(CC(F)(F)F)nc(CC(F)(F)F)c4)(C4CCCC4)OC3=O)nn2c1` (centres unmarked) [A(48), 6-{2-[2,6-Bis(2,2,2-trifluoroethyl)pyridin-4-yl]ethyl}-6-cyclopentyl-4-hydroxy-3-[(6-methyl[1,2,4]triazolo[1,5-a]pyrimidin-2-yl)methyl]-5,6-dihydro-2H-pyran-2-one] the figure was 23 nM; with `CCc1cc(CCC2(C3CCCC3)CC(=O)CC(=O)O2)ccc1OCCNC(=O)OC(C)(C)C` (centres unmarked) [A(68), tert-Butyl 2-{4-[2-(2-cyclopentyl-4,6-dioxotetrahydro-2H-pyran-2-yl)ethyl]-2-ethylphenoxy}ethylcarbamate], 12000 nM.
As for `CCc1cc(CCC2(C3CCCC3)CC(O)=C(Cc3nc4nc(C)cc(C)n4n3)C(=O)O2)ccc1Oc1nccs1` (centres unmarked) [A(122), 6-Cyclopentyl-3-[(5,7-dimethyl[1,2,4]triazolo[1,5-a]pyrimidin-2-yl)methyl]-6-{2-[3ethyl-4-(1,3thiazol-2-yloxy)phenyl]ethyl}-4hydroxy-5,6dihydro-2H-pyran-2-one], the figure is 4 nM.
On to `CCc1cc(CCC2(C3CCCC3)CC(=O)CC(=O)O2)ccc1OCCN(C)C(=O)OC(C)(C)C` (centres unmarked) [A(67), tert-Butyl 2-{4-[2-(2-cyclopentyl-4,6-dioxotetrahydro-2H-pyran-2-yl)ethyl]-2-ethylphenoxy}ethyl(methyl)carbamate], for which the concentration for half-maximal inhibition (IC50) was 47000 nM.
With `CCc1cc(CCC2(C3CCCC3)CC(=O)CC(=O)O2)ccc1NS(C)(=O)=O` (centres unmarked) [A(105), N-{4-[2-(2-cyclopentyl-4,6-dioxotetrahydro-2H-pyran-2-yl)ethyl]-2-ethylphenyl}methanesulfonamide] the figure was 250 nM; with `Cc1cc(C)n2nc(CC3=C(O)CC(CCc4ccc([C@@H](C)N)cc4)(C4CCCC4)OC3=O)nc2n1` (stereo partly drawn) [A(92), 6-(2-{4-[(1R)-1-Aminoethyl]phenyl}ethyl)-6-cyclopentyl-3-[(5,7-dimethyl[1,2,4]triazolo[1,5-a]pyrimidin-2-yl)methyl]-hydroxy-5,6-dihydro-2H-pyran-2-one], 300 nM; with `CCn1cc(CC2=C(O)CC(CCc3ccc(C(C)(C)C#N)c(F)c3)(C3CCCC3)OC2=O)cn1` (centres unmarked) [A(85), 2-[4-(2-{2-Cyclopentyl-5-[(1-ethyl-1H-pyrazol-4-yl)methyl]-4-hydroxy-6-oxo-3,6-dihydro-2H-pyran-2-yl}ethyl)-2-fluorophenyl]-2-methylpropanenitrile], 83 nM.
For the molecule `CCc1cc(CCC2(C3CCCC3)CC(O)=C(Cc3nc4nc(C)cc(C)n4n3)C(=O)O2)ccn1` (single isomer, unassigned) [A(45), 6-Cyclopentyl-3-[(5,7-dimethyl[1,2,4]triazolo[1,5-a]pyrimidin-2-yl)methyl]-6-[2-(2-ethylpyridin-4-yl)ethyl]-4-hydroxy-5,6-dihydro-2H-pyran-2-one], the half-maximal inhibitory concentration (IC50) is 14 nM.
With `CCc1cc(CCC2(C3CCCC3)CC(=O)CC(=O)O2)ccc1CC#N` (centres unmarked) [A(102), {4-[2-(2-Cyclopentyl-4,6-dioxotetrahydro-2H-pyran-2-yl)ethyl]-2-ethylphenyl}acetonitrile] the figure was 840 nM; with `CCc1cc(CCC2(C3CCCC3)CC(O)=C(Cc3nc4nc(C)cc(C)n4n3)C(=O)O2)c(OCC(C)C)cc1O` (centres unmarked) [A(59)], 3 nM.
With `CCOC(=O)c1cnc2nc(CC3=C(O)CC(CCc4ccc(C(C)(C)C#N)c(Cl)c4)(C4CCCC4)OC3=O)nn2c1` (centres unmarked) [B(13), Ethyl 2-[(6-{2-[3-chloro-4-(1-cyano-1-methylethyl)phenyl]ethyl}-6-cyclopentyl-4-hydroxy-2-oxo-5,6-dihydro-2H-pyran-3-yl)methyl][1,2,4]triazolo[1,5-a]pyrimidine-6-carboxylate] the figure was 4 nM; with `CCc1cc(CCC2(C3CCCC3)CC(O)=C(Cc3nc4nc(C)cc(C)n4n3)C(=O)O2)ccc1CCCOC` (centres unmarked) [A(20), 6-Cyclopentyl-3-[(5,7-dimethyl[1,2,4]triazolo[1,5-a]pyrimidin-2-yl)methyl]=6-{2-[3-ethyl-4-(3-methoxypropyl)phenyl]ethyl} -4-hydroxy-5,6-dihydro-2H-pyran-2-one], 9 nM; with `CCc1cc(CCC2(C3CCCC3)CC(O)=C(Cc3nc4nc(C)cc(C)n4n3)C(=O)O2)ccc1CNC(C)=O` (centres unmarked) [A(131), N-[4-(2-{2-cyclopentyl-5-[(5,7-dimethyl[1,2,4]triazolo[1,5-a]pyrimidin-2-yl)methyl]-4-hydroxy-6-oxo-3,6-dihydro-2H-pyran-2-yl}ethyl)-2-ethylbenzyl]acetamide], 2 nM.
With `CCc1cc(CCC2(C3CCCC3)CC(O)=C(Cc3nc4nc(C)cc(C)n4n3)C(=O)O2)ccc1CN1CCOCC1` (single isomer, unassigned) [A(156), 6-Cyclopentyl-3-[(5,7-dimethyl[1,2,4]triazolo[1,5-a]pyrimidin-2-yl)methyl]-6-{2-[3-ethyl-4-(morpholin-4-ylmethyl)phenyl]ethyl}-4-hydroxy-5,6-dihydro-2H-pyran-2-one] the figure was 5 nM; with `CCn1nc(C)c(CC2=C(O)CC(CCc3cc(Cl)c(OC)cc3OC)(C3CCCC3)OC2=O)c1C` (centres unmarked) [B(18), 6-[2-(5-Chloro-2,4-dimethoxyphenyl)ethyl]-6-cyclopentyl-3-[(1-ethyl-3,5-dimethyl-1H-pyrazol-4-yl)methyl]-4-hydroxy-5,6-dihydro-2H-pyran-2-one], 170 nM; with `Cc1nn(C)c(C)c1CC1=C(O)CC(CCc2ccc(C(C)(C)C#N)c(Cl)c2)(C2CCCC2)OC1=O` (centres unmarked) [B(25), 2-[2-Chloro-4-(2-{2-cyclopentyl-4-hydroxy-6-oxo-5-[(1,3,5-trimethyl-1H-pyrazol-4-yl)methyl]-3,6-dihydro-2H-pyran-2-yl}ethyl)phenyl]-2-methylpropanenitrile], 33 nM.
Take `O=C1CC(=O)OC(CCc2ccc(S(=O)(=O)C(F)(F)F)cc2)(C2CCCC2)C1` (centres unmarked) [A(66), 6-Cyclopentyl-6-(2-{4[(trifluoromethyl)sulfonyl]phenyl}ethyl)dihydro-2H-pyran-2,4(3H)-dione]: the IC50 came out at 31000 nM.
As for `CS(=O)(=O)c1ccc(CCC2(C3CCCC3)CC(=O)CC(=O)O2)cc1Cl` (centres unmarked) [B(2), 6-{2-[3-Chloro-4-(methylsulfonyl)phenyl]ethyl}-6-cyclopentyldihydro-2H-pyran-2,4(3H)-dione], the figure is 48000 nM; as for `COC(=O)c1ccc(CCC2(C3CCCC3)CC(=O)CC(=O)O2)cc1Cl` (centres unmarked) [B(7)], 7000 nM; as for `CCc1cc(CCC2(C3CCCC3)CC(O)=C(Cc3nc4nc(C)cc(C)n4n3)C(=O)O2)c2c(c1O)CCO2` (single isomer, unassigned; enantiomer 1) [A(12), Enantiomer 1 of 6-Cyclopentyl-3-[(5,7-dimethyl[1,2,4]triazolo[1,5-a]pyrimidin-2-yl)methyl]-6-[2-(5-ethyl-4-hydroxy-2,3-dihydro-1-benzofuran-7-yl)ethyl]-4-hydroxy-5,6-dihydro-2H-pyran-2-one], 2 nM.
With `CCc1cc(CCC2(C3CCCC3)CC(O)=C(Cc3nc4nc(C)cc(C)n4n3)C(=O)O2)ccc1CN` (centres unmarked) [A(125), 6-{2-[4-(Aminomethyl)-3-ethylphenyl]ethyl}-6-cyclopentyl-3-[(5,7-dimethyl[1,2,4]triazolo[1,5-a]pyrimidin-2-yl)methyl]-4-hydroxy-5,6-dihydro-2H-pyran-2-one hydrochloride] the figure was 10 nM; with `CCc1cc(CCC2(C3CCCC3)CC(O)=C(Cc3nc4nc(C)cc(C)n4n3)C(=O)O2)cc(C(C)C)n1` (centres unmarked) [A(34), 6-Cyclopentyl-3-[(5,7-dimethyl[1,2,4]triazolo[1,5-a]pyrimidin-2-yl)methyl]-6-[2-(2-ethyl-6-isopropylpyridin-4-yl)ethyl]-4-hydroxy-5,6-dihydro-2H-pyran-2-one], 12 nM.
